Laboratory results published in the METLIN SMRT retention time set (Domingo-Almenara et al. 2019).

test: gradient 5% acetonitrile 3 min, to 50% in 2 min, to 85% in 15 min, held 3 min, 100 µL/min; conditions: column: Zorbax Extend-C18 2.1 x 50 mm; eluents: water / acetonitrile, 0.1% formic acid
Outline: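 Data were gathered over 3 months by HPLC coupled to a quadrupole time-of-flight mass spectrometer, operated in positive and negative ionization mode. Mixtures of ~100 pure standards ran on a Zorbax Extend-C18 column (2.1 × 50 mm, 1.8 μm) at 100 μL/min, with water and acetonitrile each containing 0.1% formic acid and dead and dwell volumes of 40 μL and 900 μL. Retention time was read from adduct peaks picked by computer and checked manually.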

| Compound | RP-LC retention time [s] |
| --- | --- |
| Cc1ccc(N2CN(CC#N)S(=O)(=O)c3cccnc32)cc1 | 877 |
| O=C(NCCc1c[nH]c2ccccc12)C1CCCN(c2nnc(N3CCCC3=O)s2)C1 (centres undefined) | 690 |
| CN1CCN(c2ncc3c(n2)CC(c2ccc(Cl)cc2)CC3=O)CC1 (centres undefined) | 674 |
| CC(C)c1noc(-c2cccnc2N2CCCN(Cc3cccc(C(F)(F)F)c3)CC2)n1 | 794 |
| O=C(CCc1csc(NS(=O)(=O)c2ccccc2)n1)Nc1nc2ccccc2s1 | 730 |
| Cc1cc(S(=O)(=O)N2CCC(n3cnnc3-c3ccccc3)CC2)ccc1F | 840 |
| CC(C)C(=O)N1CCN(c2ccc(=O)n(-c3ccc(C(C)C)cc3)n2)CC1 | 834 |
| CCOC(=O)c1c(N)n(Cc2cccc(OC)c2)c2nc3ccccc3nc12 | 750 |
| CCOc1ccccc1C(=O)NCCS(=O)(=O)N1CCN(c2ccccn2)CC1 | 597 |
| O=C(CN1C(=O)c2ccccc2C1=O)NCC1(c2cccs2)CCCCC1 | 936 |
| Cn1ncc2c(N3CCSCC3)nc(C(=O)N3CCOCC3)nc21 | 635 |
| Cc1cc(C(=O)Nc2ccc(Br)cc2F)n(-c2ccccc2)n1 | 1010 |
| COc1ccc2c(c1)C1(CCN(C(=O)c3cccc(Cl)c3)C1)C(=O)N2 (centres undefined) | 753 |
| CCOc1cc(=O)c(C(=O)N2CCC(C(N)=O)CC2)nn1-c1ccc(F)c(F)c1 | 625 |
| CC(C)c1csc(-c2csc(S(=O)(=O)Nc3ccc(Br)cc3F)c2)n1 | 1200 |
| CCCCN(CC)C(=O)Cn1nc(Cc2ccncc2)c2ccccc2c1=O | 624 |
| CC(C)Cn1c(=O)c(C(=O)NCCN2CCCCC2)nc2cccnc21 | 552 |
| CCn1ccc2cc(S(=O)(=O)N3CCCC(C(=O)NCCCc4ccccc4)C3)ccc21 (centres undefined) | 1000 |
| Cc1noc2ncnc(N3CCCC(C(=O)N4CCCc5ccccc54)C3)c12 (centres undefined) | 878 |
| Cc1cccc(S(=O)(=O)N(C)CC2(C)CCOCC2)c1 | 918 |

| Compound | RP-LC retention time [s] |
| --- | --- |
| CN1CCC([C@@H]2CN(S(=O)(=O)c3ccc(Cl)s3)C[C@H]2C(N)=O)CC1 | 573 |
| O=C(NC1CC1)C1CCN(c2nc3ccsc3c(=O)n2Cc2ccccc2)CC1 | 741 |
| Cc1cccc(NC(=O)C2CCN(S(=O)(=O)c3cccc4nsnc34)CC2)c1C | 895 |
| CCCCC(=O)Nc1ccc2nc(N3CCN(c4cccc(C)c4)CC3)cc(C(=O)O)c2c1 | 722 |
| Clc1ccc(OCc2nc(-c3ccc4c(c3)ncn4CCN3CCCC3)no2)cc1 | 690 |
| CC(C)c1ccc(-n2c3c(cc(C(=O)N4CCCCC4)c2=O)C(=O)CCC3)cc1 | 884 |
| CCN1CCN(C(=O)C2CCN(S(=O)(=O)c3c(C)nn(-c4ccc(Cl)cc4)c3C)CC2)CC1 | 670 |
| O=C(N1CCCC1)N1CCN(c2ccccc2F)CC1 | 762 |
| Cc1ccsc1C(=O)NC1(c2nc(-c3cccnc3)no2)CCCCC1 | 937 |
| Cc1nc2c(c(C)nn2C(C)(C)C)c(C)c1CCC(=O)N1CCN(c2ccccn2)CC1 | 731 |
| Cc1ccc(C)c(S(=O)(=O)N2CCC(c3noc(COCC4CC4)n3)CC2)c1 | 1100 |
| Cc1ccc(-c2nnc(SCc3noc(CCC(=O)Nc4cc(C)on4)n3)o2)cc1 | 846 |
| CC1CCCN(c2nn3c(C(=O)NCCc4c[nH]c5ccccc45)cc(=O)nc3s2)C1 (centres undefined) | 838 |
| Cc1cccc(-c2nc(NCCCN3CCOCC3)c3ccccc3n2)c1 | 819 |
| c1ccc(-n2nnc(-c3noc(-c4ccco4)n3)c2-c2ccncc2)cc1 | 787 |
| CS(=O)(=O)NCCc1ccc(CC2CCNCC2)cc1 | 588 |
| CSc1ccc(-c2nc3ccccn3c2Nc2ccccc2C)cc1 | 794 |
| Cc1nnsc1C(=O)Nc1ccc([N+](=O)[O-])cc1C(F)(F)F | 868 |
| Fc1ccc(Cc2noc(-c3nc(-c4ccncc4)no3)n2)cc1 | 943 |
| CC(C)n1c(CCNC(=O)c2ccccc2)nc2cccnc21 | 640 |

| Compound | RP-LC retention time [s] |
| --- | --- |
| CN(C)CC(=O)N1CC(F)(F)C[C@H]1c1nc(C2CC2)no1 | 584 |
| CCC(=O)N1c2ccc(S(=O)(=O)N3CCCCC3)cc2CC1C(=O)NCc1ccccc1C (centres undefined) | 916 |
| O=C(c1ccc(OCC2CCCN2C(=O)Cc2ccc(Cl)cc2)cc1)N1CCOCC1 (centres undefined) | 811 |
| CCCOc1nc2ccccc2nc1N1CCCC(C(=O)Nc2cccc(C)c2C)C1 (centres undefined) | 1390 |
| Cc1c(-c2noc(-c3ccc(F)c(F)c3)n2)nnn1Cc1ccccc1 | 1090 |
| Cc1noc(C)c1S(=O)(=O)N1CCCC(Cn2c(C3CC3)nc3cccnc32)C1 (centres undefined) | 720 |
| CCCNC(=O)C1CCCN(c2nc3ncn(CC(=O)Nc4ccccc4F)c(=O)c3s2)C1 (centres undefined) | 679 |
| CCC(CC)N1CCN(S(=O)(=O)c2cc(-c3[nH]ncc3C(=O)N(C)C)oc2C)CC1 | 577 |
| O=C1[C@H]2CN(Cc3ccccc3Cl)C[C@H]2C(=O)N1Cc1ccc2c(c1)OCO2 | 930 |
| O=C(CCc1c(-c2ccc(F)cc2)nc2ccccn12)N1CCN(c2ccccc2)CC1 | 693 |
| CCOc1ccccc1-n1ccn(Cc2nc(-c3ccccc3)no2)c(=O)c1=O | 848 |
| CC(=O)N1CCC(C2CCN(C(=O)C3CC=CCC3)C2)CC1 (centres undefined) | 691 |
| CC(C)N1CCCn2cc(S(=O)(=O)Nc3ccc(Oc4ccccc4)cc3)cc2C1=O | 909 |
| O=C(CN(C(=O)c1ccc(F)c(Cl)c1)C1CCCCC1)N1CCNCC1 | 659 |
| Cc1ccccc1N1CCN(C(=O)c2csc(C(=O)NC3CC3)n2)CC1 | 884 |
| Cn1cnc(S(=O)(=O)N2CCC(C(=O)NC3CCCCCC3)CC2)c1 | 680 |
| CC1(C(=O)Nc2ccc(Cl)cc2F)Oc2cccnc2NC1=O (centres undefined) | 774 |
| CCCCNC(=O)C1CC(=O)N(CCc2c[nH]c3ccc(C)cc23)C1 (centres undefined) | 762 |
| Cc1ccc2oc(-c3noc(C(=O)NCCC4=CCCCC4)n3)c(C)c2c1 | 1400 |

Second part, the molecule after the results:

| RP-LC retention time [s] | Compound |
| --- | --- |
| 805 | COc1ccc2c(c1)C=C(C(=O)NCc1ccc(OC)c(OC)c1)CO2 |
| 892 | Cn1cc(-c2ccccc2)cc1C(=O)NCc1ccc(N2CCOCC2)cc1 |
| 989 | CC(C)OCCCNC(=O)c1cc2c(n(-c3ccc(C(C)C)cc3)c1=O)CCCC2=O |
| 1150 | COc1cc(OC)c(NS(=O)(=O)c2cc(-c3cc(C(F)(F)F)on3)sc2C)cc1Cl |
| 662 | CCOC(=O)N1CCN(C(=O)CCc2cc3cc(OC)ccc3[nH]c2=O)CC1 |
| 1260 | COc1ccc2nc3cc(Cl)ccc3c(C#N)c2c1 |
| 1080 | CCOC(=O)c1nc(NCCc2ccc(C)cc2)c2c(CC)noc2n1 |
| 845 | COc1ccc(-c2nc(Cn3cnc4nc5c(cc4c3=O)CCCC5)c(C)o2)c(OC)c1 |
| 694 | O=C(Nc1cnc(N2CCN(CCOc3ccc(Cl)cc3)CC2)c(C(=O)O)c1)c1ccc(F)cc1 |
| 646 | Cc1nnc(CNC(=O)c2cc(-c3ccccc3)nn2C)o1 |
| 949 | CCc1nc(-n2cccc2)sc1C(=O)Nc1ccc(C)cc1 |
| 1360 | CCOc1ccccc1-c1csc(NC(=O)Cc2csc(COc3cc(C)ccc3C)n2)n1 |
| 579 | CC(C)n1cnc2cc(CNC(=O)c3ccsc3)ccc21 |
| 669 | CCN(CC)S(=O)(=O)c1ccc2c(c1)CC(C(=O)NCc1ccc(N(C)C)cc1)N2C(C)=O (centres undefined) |
| 822 | CCn1ccc2sc(C)c(C(=O)NCc3cccc(F)c3)c2c1=O |
| 964 | COC(=O)c1cn(CC(=O)N2CCc3ccccc3C2)c2ccccc12 |
| 848 | COc1ccc(-c2nnc(Cc3nc(-c4ccccc4F)no3)o2)cc1OC |
| 830 | COc1ccc2nc(C(=O)NCc3ccc(Cl)cc3)cn2n1 |
| 955 | COc1cccc(CN2C(=O)CSc3c(c4ccccc4n3C)C2C(=O)NCCCOC(C)C)c1 (centres undefined) |
| 998 | O=S(=O)(Nc1cccc(C(F)(F)F)c1)c1ccc2c(c1)-c1oncc1CO2 |
| 872 | COc1ccc(OC)c2sc(NC(=O)c3ccc(S(=O)(=O)N4CCCC4)cc3)nc12 |
| 929 | CCOc1ccccc1NC(=O)C1(C)Oc2cccnc2N(C)C1=O (centres undefined) |
| 1000 | CCOC(=O)c1[nH]c(C)c(CN(CC2CCCO2)C(=O)c2ccc(Cl)cc2)c1C (centres undefined) |
| 705 | COC(=O)c1cnc2nc(C)ccc2c1Nc1cccc(Cl)c1 |
| 693 | COc1ccc(NC(=O)CN2C(=O)C3CCCN3C(=O)c3ccc(F)cc32)cc1 (centres undefined) |
| 1100 | COc1ccc(-c2nc(-c3cn(-c4cccc(Cl)c4)nn3)no2)cc1 |
| 1110 | c1ccc(-c2noc(-c3ccc(NCc4ccc5c(c4)OCO5)nc3)n2)cc1 |
| 685 | COc1ccc(OC)c(S(=O)(=O)N2CCCC3(CC2)CNC(=O)O3)c1 (centres undefined) |
| 1090 | COc1cccc(COC(=O)C2=CN(Cc3ccccc3)S(=O)(=O)N=C2C)c1 |
| 1130 | Cc1ccc(N2CC(c3nc(-c4ccccc4C)no3)CC2=O)cc1F (centres undefined) |
